{"source": "patent US12035718B2", "about": "“Biofilm penetrating compositions and methods” (Nevada Naturals Inc., priority 2017, dated 2024)", "key": {"[1]": {"test_system": "P. aeruginosa", "settings": "literature reports (Musk et al.; Kim et al.); cited from earlier work"}, "[2]": {"test_system": "Streptococcus pyogenes, Streptococcus mitis, Staphylococcus epidermidis, and E. coli", "settings": "10 wt % of hexylene glycol, in vitro; cited from earlier work"}, "[3]": {"settings": "rats; cited from earlier work"}, "[4]": {"test_system": "Candida albicans", "assay": "MIC of LAE/SL mixtures (FIG. 7, FIG. 8A)", "assay_type": "cell-based", "settings": "Example 8, FIG. 8A; solubilized in DW", "method": "MIC values of various mixtures of N^α-lauroyl arginine ethyl ester HCl salt and sucrose monolaurate in preventing the growth of Candida alibicans were determined. […] In comparing ratios of wt % of SL to wt % of LAE, ratios from 2:1 to 1:2 show enhancement compared to 100 wt % LAE."}, "[5]": {"test_system": "S. aureus", "settings": "Example 8, FIG. 8A; solubilized in DW", "method": "In Example 8, different pathogens were tested for MIC (Minimum Inhibitory Concentration) with formulations that comprise combinations of LAE and SL. […] In FIGS. 8A and 8B the active ingredients LAE and SL were solubilized in DW as indicated and were tested. FIG. 8A reports MIC combination of LAE and SL tested on Candida albicans fungi in duplicate and for gram positive S. aureus. FIG. 8B reports MIC on combinations of LAE/SL exposed to S. epidermidis."}, "[6]": {"test_system": "S. epidermidis", "assay": "MIC of LAE/SL mixtures (FIG. 8B)", "assay_type": "cell-based", "settings": "Example 8, FIG. 8B; solubilized in DW", "procedure": "In Example 8, different pathogens were tested for MIC (Minimum Inhibitory Concentration) with formulations that comprise combinations of LAE and SL. […] In FIGS. 8A and 8B the active ingredients LAE and SL were solubilized in DW as indicated and were tested. […] FIG. 8B reports MIC on combinations of LAE/SL exposed to S. epidermidis."}}, "note": "Structures can show the parent of a compound that is named as a salt."}
{"molecule": "CCCCCCCCCCCC(=O)N[C@@H](CCCNC(=N)N)C(=O)OCC", "note": "[LAE, N^α-lauroyl-L-arginine-ethyl ester]", "values": [{"measurement": "biofilm formation, result in words", "setting": "[1]", "result": "inhibited biofilm formation"}]}
{"molecule": "CC(O)CC(C)(C)O", "note": "(stereo not shown) [hexylene glycol]", "values": [{"measurement": "killing power, comparison", "setting": "[2]", "result": "equivalent to 30 wt % of 1,3 butylene glycol or propylene glycol"}]}
{"molecule": "CCOC(=O)CC(O)(CC(=O)OCC)C(=O)OCC", "note": "[triethyl citrate]", "values": [{"measurement": "oral LD50", "setting": "[3]", "result": 7.0, "unit": "cc/kg"}]}
{"molecule": "Ferric ammonium citrate [reference compound]", "values": [{"measurement": "biofilm formation, result in words", "setting": "[1]", "result": "inhibited biofilm formation in a dose-dependent manner"}]}
{"molecule": "sucrose laurate [SL]", "values": [{"measurement": "MIC, result in words", "setting": "[4]", "result": "much higher MIC values than LAE or combinations of LAE/SL"}, {"measurement": "MIC, result in words", "setting": "[5]", "result": "much higher MIC values than LAE or combinations of LAE/SL"}, {"measurement": "MIC, result in words", "setting": "[6]", "result": "much higher MIC values than LAE or combinations of LAE/SL"}]}
